Reference: US8440653B2, “3-substituted-1,4-diazepan-2-one melanocortin-5 receptor antagonists” (Mimetica Pty Ltd, priority 2008, dated 2013)
Where two headings read alike, the source gives them in different places.

What was measured:
sebum excretion = conditions: oral isotretinoin, after 8-12 weeks of therapy; cited from earlier work
rhesus monkey MC5R = target: T1, rhesus monkey MC5R (Macaca mulatta, UniProt A0A5F8AEA9); assay: MC5R radioligand binding assay, other species: rhesus monkey MC5R membranes; conditions: membranes of cells expressing cloned receptor
T1 construct: expressed in transfected cells
Protocol: (§1) Assays were performed in 96 well polypropylene plates. […] This was incubated for 1 hr at 37° C. […] Non-specific binding just under 5%.
(§2) Representative compounds of the present invention were tested for binding to MC5R from other species, as in described in Example 48, the results are listed in Table 4.

human MC5R (hMC5R) = target: T2, human MC5R (hMC5R) (Homo sapiens, UniProt P33032); assay: Human MC5R radioligand binding assay ([125I] NDP-MSH displacement)
T2 construct: purchased Perkin Elmer RBXMC5M400UA
Protocol: Assessments of compound binding to human MC5R (hMC5R) by displacement of an ^125I-labeled NDP-MSH receptor ligand peptide were performed essentially as described in the data sheets produced by Perkin Elmer to accompany their frozen hMC5R membranes (Perkin Elmer catalog number RBXMC5M400UA).
Na^125I (0.5 mCi, 17.4 Ci/mg) was added to 50 μL sodium phosphate (50 mM, pH 7.4) in an eppendorf tube precoated with IODOGEN. After incubation for 10 mins the phosphate buffer containing the iodine was added to NDP-MSH (10 ul at 1 mg/mL) in a separate eppendorf tube. This was incubated for a further 10 mins. The iodinated NDP-MSH was purified by HPLC on a Zorbax SB 300 column using solvent A: 0.05% TFA and solvent B: 90% acetonitrile 0.045% TFA with a linear gradient, 0-67% B over 60 mins. The ^125I NDP-MSH eluted at 52 min after the unlabeled starting material (48 min) and was counted and stored in the freezer.
Incubation buffer: 25 mM HEPES-KOH (pH 7.0), 1.5 mM CaCl2, 1 mM MgSO4, 0.1 M NaCl, 1 mM 1,10-phenanthroline, and 1 Complete™ protease inhibitor tablet/100 mL (Roche, catalog number 1873580)
Perkin Elmer frozen hMC5 membranes: catalog number RBXMC5M400UA, 0.4 mL/vial; 400 microassays/vial. 0.78 mg/mL protein concentration
Vials of frozen membranes were thawed rapidly immediately before use, diluted with binding buffer and vortexed. Resuspended membranes were kept on ice until they were added to the wells of the plate.
as §1
Representative compounds of the present invention were tested for binding in the hMC5R assay as in Example 46, as listed in Table 3. The compounds were tested as their trifluoroacetate or hydrochloride salts, or as their free bases.

human MC4R = target: T3, human MC4R (Homo sapiens, UniProt P32245); assay: Human MC4R radioligand binding assay; conditions: [125I] NDP-MSH
T3 construct: expressed in transfected cells; host or cells: transfected mammalian cells, if the membranes were in-house
Protocol: as §1
(§3) Radioligand binding assays were carried out using commercial or in-house prepared hMC1R, hMC3R and hMC4R membranes and [^125I] NDP-MSH, as per hMC5R procedure in Example 46.
(§4) The homogenisation and ice incubation was repeated three times. The mixture was then centrifuged at 1260×g for 5 mins. […] This was centrifuged at 30,000×g for 90 mins at 4° C.

human MC5R [1] = target: T4, human MC5R (Homo sapiens, UniProt P33032); assay: cAMP assay (antagonism of alpha-MSH) in HEK 293 cells expressing human MC5R; assay type: cell-based; conditions: HEK 293 cells transiently expressing MC5R; 10^−6 M alpha-MSH
T4 construct: host or cells: HEK 293, transient transfection
Protocol: (§5) HEK 293 cells transiently expressing the melanocortin MC5 receptor were suspended in stimulation buffer (Hanks buffered saline solution (HBSS), 0.1% bovine serum albumin, protease inhibitors and 0.5 mM 3-Isobutyl-1-methylxanthine) at 4×10^6 cells/mL. 5 μl of cells, plus the compounds/peptides as described below, were added to wells of a 384-well plate as soon as possible after resuspension.
To detect antagonist activity, test compounds at varying concentrations were diluted in stimulation buffer at four times concentrate and 2.5 μl was added to wells containing cells. 2.5 μl of a four times required concentration of NDP-MSH or alpha-MSH was added to all wells containing compounds. […]
(§6) Basal level (of cAMP) control wells contained stimulation buffer only (no agonist or compounds). […] After incubation, 10 μl of lysis buffer (10% Tween 20, 1 M HEPES, 0.1% BSA, protease inhibitors, ddH2O) was added to all wells to be measured. […] 5 μl of diluted acceptor beads were added to each well to be measured, then the plate was incubated for 30 mins at room temperature, in the dark, with gentle shaking. […] Plates were read on an Envision plate reader (Perkin Elmer) after 1 hr and ˜16 hrs incubation. cAMP concentration in the cells was determined by the use of a ‘standard curve’ generated from the output of known cAMP concentrations as described below. […]

human MC1R = target: T5, human MC1R (Homo sapiens, UniProt Q01726); assay: Human MC1R radioligand binding assay; conditions: [125I] NDP-MSH
T5 construct: expressed in transfected cells; host or cells: transfected mammalian cells, if the membranes were in-house
Protocol: as §1, §3, §4

mouse MC5R = target: T6, mouse MC5R (Mus musculus, UniProt P41149); assay: MC5R radioligand binding assay, other species: mouse MC5R membranes; conditions: membranes from Euroscreen; read-out: mouse MC5R (membrane) IC50
T6 construct: purchased Euroscreen
Protocol: as §1, §2

human MC5R [2] = target: T4, human MC5R; assay: cAMP stimulation assay (agonism) in HEK 293 cells expressing human MC5R; assay type: cell-based; conditions: HEK 293 cells transiently expressing MC5R
Protocol: as §5
To detect agonist activity, test compounds at varying concentrations were diluted in stimulation buffer at two times concentrate and 5 μl was added to wells containing cells. Positive control wells contained NDP-MSH or alpha-MSH alone (no compound) at two times concentrate
as §6

human MC3R = target: T7, human MC3R (Homo sapiens, UniProt P41968); assay: Human MC3R radioligand binding assay; conditions: [125I] NDP-MSH
T7 construct: expressed in transfected cells; host or cells: transfected mammalian cells, if the membranes were in-house
Protocol: as §1, §3, §4

[3] = Table 5, hMCR binding selectivity, read-out: human MC5R IC50
[4] = hMC5R membranes, [125I] NDP-MSH, tested as trifluoroacetate or hydrochloride salts or free bases, read-out: MC5R radioligand IC50

T4 sequence (P33032 whole entry): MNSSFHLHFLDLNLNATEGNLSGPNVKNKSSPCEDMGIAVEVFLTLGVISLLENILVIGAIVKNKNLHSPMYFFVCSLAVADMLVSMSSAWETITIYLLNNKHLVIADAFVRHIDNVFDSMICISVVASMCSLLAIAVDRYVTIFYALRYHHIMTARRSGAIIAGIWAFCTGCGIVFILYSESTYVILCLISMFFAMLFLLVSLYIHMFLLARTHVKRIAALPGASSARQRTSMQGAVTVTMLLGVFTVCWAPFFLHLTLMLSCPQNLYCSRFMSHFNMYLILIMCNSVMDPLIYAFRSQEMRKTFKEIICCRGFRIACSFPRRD
T2 sequence (P33032 whole entry): as above
T5 sequence (Q01726 whole entry): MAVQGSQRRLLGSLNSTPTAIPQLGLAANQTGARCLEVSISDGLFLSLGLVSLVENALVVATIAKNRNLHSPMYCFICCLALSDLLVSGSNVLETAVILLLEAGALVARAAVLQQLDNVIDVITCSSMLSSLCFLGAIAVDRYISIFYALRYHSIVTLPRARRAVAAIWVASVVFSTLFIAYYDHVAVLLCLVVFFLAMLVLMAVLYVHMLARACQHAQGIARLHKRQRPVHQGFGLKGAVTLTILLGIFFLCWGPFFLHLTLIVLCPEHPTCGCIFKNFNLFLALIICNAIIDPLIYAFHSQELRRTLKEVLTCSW
T7 sequence (P41968 whole entry): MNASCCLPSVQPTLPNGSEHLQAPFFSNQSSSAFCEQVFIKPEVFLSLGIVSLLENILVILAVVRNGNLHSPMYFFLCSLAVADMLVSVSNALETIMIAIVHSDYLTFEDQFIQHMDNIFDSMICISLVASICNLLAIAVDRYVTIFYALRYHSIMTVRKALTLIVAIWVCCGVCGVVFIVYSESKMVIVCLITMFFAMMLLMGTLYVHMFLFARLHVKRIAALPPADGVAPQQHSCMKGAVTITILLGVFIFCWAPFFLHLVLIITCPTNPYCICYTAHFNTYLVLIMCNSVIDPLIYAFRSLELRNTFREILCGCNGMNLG
T3 sequence (P32245 whole entry): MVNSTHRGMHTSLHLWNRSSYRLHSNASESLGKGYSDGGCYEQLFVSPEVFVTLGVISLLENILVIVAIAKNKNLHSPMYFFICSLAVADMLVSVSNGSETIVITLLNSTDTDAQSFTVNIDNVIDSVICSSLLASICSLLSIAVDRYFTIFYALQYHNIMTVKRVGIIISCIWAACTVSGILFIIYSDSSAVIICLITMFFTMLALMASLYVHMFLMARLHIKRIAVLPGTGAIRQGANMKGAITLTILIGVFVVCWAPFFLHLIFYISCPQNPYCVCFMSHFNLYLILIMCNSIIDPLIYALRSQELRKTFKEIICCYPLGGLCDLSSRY
T6 sequence (P41149 whole entry): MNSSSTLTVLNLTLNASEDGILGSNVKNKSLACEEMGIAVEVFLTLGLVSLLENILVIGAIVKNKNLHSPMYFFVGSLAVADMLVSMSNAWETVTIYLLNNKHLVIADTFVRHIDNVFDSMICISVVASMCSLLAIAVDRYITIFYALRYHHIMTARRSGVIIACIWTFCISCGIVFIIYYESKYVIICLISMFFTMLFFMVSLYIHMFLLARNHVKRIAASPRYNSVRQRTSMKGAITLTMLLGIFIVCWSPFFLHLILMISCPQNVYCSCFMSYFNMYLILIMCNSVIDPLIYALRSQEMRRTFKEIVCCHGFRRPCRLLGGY
T1 sequence (A0A5F8AEA9 1-325): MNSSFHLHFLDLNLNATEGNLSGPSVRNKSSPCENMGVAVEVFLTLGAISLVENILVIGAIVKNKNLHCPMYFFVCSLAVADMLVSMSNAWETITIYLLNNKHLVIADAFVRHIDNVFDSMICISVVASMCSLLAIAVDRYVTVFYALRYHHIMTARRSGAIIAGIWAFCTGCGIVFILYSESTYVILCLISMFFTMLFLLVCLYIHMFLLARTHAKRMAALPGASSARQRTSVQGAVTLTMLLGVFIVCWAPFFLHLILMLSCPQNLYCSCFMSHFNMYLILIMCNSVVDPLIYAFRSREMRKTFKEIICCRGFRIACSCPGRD

Row | SMILES | reduction of sebum excretion (sebum excretion) | IC50 (rhesus monkey MC5R) [µM] | IC50 (human MC5R (hMC5R); Table 4, membranes, read-out: human MC5R (membrane) IC50) [nM] | IC50 (human MC5R (hMC5R); [3]) [nM] | IC50 (human MC5R (hMC5R); [4]) [nM] | IC50 (human MC4R) [µM] | IC50 (human MC5R [1]) [µM] | IC50 (human MC1R) [µM] | IC50 (mouse MC5R) [nM] | EC50 (human MC5R [2]) [µM] | IC50 (human MC3R) [µM]
1 | CC1=C(/C=C/C(C)=C/C=C/C(C)=C\C(=O)O)C(C)(C)CCC1 [isotretinoin, 13-cis-retinoic acid] | up to 90% |  |  |  |  |  |  |  |  |  | 
2 | CC[C@H](CN1CC[C@@H](CNC(=O)c2ccc3cc(Cl)ccc3c2)N[C@@H](CCC(C)C)C1=O)c1ccccc1 [Compound 17, 6-chloro-N-(((3S,5S)-3-isopentyl-2-oxo-1-((S)-2-phenylbutyl)-1,4-diazepan-5-yl)methyl)-2-naphthamide] |  | 3.76 | 30 | 30 | < 100 | > 10 | 6 | > 10 | 2300 | > 10 | 3.05
3 | CC[C@H](CN1CC[C@@H](CNC(=O)c2ccc3cc(Cl)ccc3c2)N[C@@H](CCC(=O)N2CCCCC2)C1=O)c1ccccc1 [Compound 66, 6-chloro-N-(((3S,5S)-2-oxo-3-(3-oxo-3-(piperidin-1-yl)propyl)-1-((S)-2-phenylbutyl)-1,4-diazepan-5-yl)methyl)-2-naphthamide] |  |  |  | 50 | < 100 | > 10 | 0.6 | > 10 |  | > 10 | 4.96
4 | O=C(NC[C@@H]1CCN(CC(c2ccccc2)c2ccccc2)C(=O)[C@H](CCC(=O)N2CCCCC2)N1)c1ccc2ccccc2c1 [Compound 55, N-(((3S,5S)-1-(2,2-diphenylethyl)-2-oxo-3-(3-oxo-3-(piperidin-1-yl)propyl)-1,4-diazepan-5-yl)methyl)-2-naphthamide] |  |  |  |  | < 1000 |  |  |  |  |  | 
